Measured values published in ChEMBL document CHEMBL1201862, “PubChem BioAssay data set” (2004).
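Protocol summary: plate cells (96-well), add compound at 5 concentrations, incubate 48 h, interpolate endpoints linearly. Here, GI50 denotes the concentration required for 50% inhibition of growth.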 The source made the active and inactive calls. Rule as the data show it: active = GI50 up to about 1.1 µM and inactive = higher.

Key:
Test in all cases: growth of human tumour cells (NCI), 48 h
786-0 = test system: 786-0
CAKI-1 = test system: CAKI-1
CCRF-CEM = test system: CCRF-CEM
EKVX = test system: EKVX
HCC 2998 = test system: HCC 2998
HOP-62 = test system: HOP-62
HOP-92 = test system: HOP-92
Hs-578T = test system: Hs-578T
LOX IMVI = test system: LOX IMVI
M14 = test system: M14
SK-MEL-2 = test system: SK-MEL-2
SK-MEL-5 = test system: SK-MEL-5
SK-OV-3 = test system: SK-OV-3
SN12C = test system: SN12C
SNB-19 = test system: SNB-19
SW-620 = test system: SW-620
TK-10 = test system: TK-10
U-251 = test system: U-251
UACC-257 = test system: UACC-257
UACC-62 = test system: UACC-62

Measured: GI50

COc1ccc(-c2cc(=O)c3c(O)c(OC)c(O)cc3o2)cc1O
inactive: 786-0 4.95 µM | CAKI-1 13.9 µM | CCRF-CEM 3.7 µM | EKVX 9.25 µM | HCC 2998 6.12 µM | HOP-62 6.9 µM | HOP-92 15 µM | Hs-578T 3.08 µM | LOX IMVI 3.51 µM | M14 3.4 µM | SK-MEL-2 3.93 µM | SK-MEL-5 3.41 µM | SK-OV-3 6.28 µM | SN12C 6.68 µM | SNB-19 13.6 µM | SW-620 3.13 µM | TK-10 68.2 µM | U-251 5.26 µM | UACC-257 8.02 µM | UACC-62 4.04 µM

C=CCN1C(=O)CNC1=S
inactive: 786-0 > 100 µM | CAKI-1 > 100 µM | CCRF-CEM 5.35 µM | EKVX > 100 µM | HCC 2998 > 100 µM | HOP-62 > 100 µM | HOP-92 > 100 µM | Hs-578T > 100 µM | LOX IMVI > 100 µM | M14 > 100 µM | SK-MEL-2 > 100 µM | SK-MEL-5 > 100 µM | SK-OV-3 > 100 µM | SN12C > 100 µM | SNB-19 > 100 µM | SW-620 > 100 µM | TK-10 > 100 µM | U-251 > 100 µM | UACC-257 > 100 µM | UACC-62 > 100 µM

Cn1cnc([N+](=O)[O-])c1[Se]c1nc(N)nc2c1ncn2C1OC(CO)C(O)C1O (stereo not given)
inactive: 786-0 > 100 µM | CAKI-1 > 100 µM | CCRF-CEM > 100 µM | EKVX > 100 µM | HCC 2998 > 100 µM | HOP-62 > 100 µM | HOP-92 > 100 µM | Hs-578T > 100 µM | LOX IMVI > 100 µM | M14 > 100 µM | SK-MEL-2 > 100 µM | SK-MEL-5 > 100 µM | SK-OV-3 > 100 µM | SN12C > 100 µM | SNB-19 > 100 µM | SW-620 > 100 µM | TK-10 > 100 µM | U-251 > 100 µM | UACC-257 > 100 µM | UACC-62 > 100 µM

COC(=O)NCCc1n[nH]c2c1C(=O)C=C(OC)C2=O
inactive: 786-0 19.5 µM | CAKI-1 24.5 µM | CCRF-CEM 21.1 µM | EKVX 22.9 µM | HCC 2998 > 100 µM | HOP-62 20.9 µM | HOP-92 21.5 µM | Hs-578T 34.3 µM | LOX IMVI 17.8 µM | M14 19.7 µM | SK-MEL-2 54.2 µM | SK-MEL-5 15.5 µM | SK-OV-3 > 100 µM | SN12C 20.3 µM | SNB-19 21.3 µM | SW-620 22.6 µM | TK-10 43.9 µM | U-251 16.7 µM | UACC-257 15 µM | UACC-62 25.4 µM

CCN(CC)CC1CCCCN1CC(=O)N1c2ccccc2NC(=O)c2ccccc21 (stereo not given)
inactive: 786-0 > 100 µM | CAKI-1 > 100 µM | CCRF-CEM > 100 µM | EKVX > 100 µM | HCC 2998 > 100 µM | HOP-62 > 100 µM | HOP-92 > 100 µM | Hs-578T > 100 µM | LOX IMVI > 100 µM | M14 > 100 µM | SK-MEL-2 > 100 µM | SK-MEL-5 > 100 µM | SK-OV-3 > 100 µM | SN12C > 100 µM | SNB-19 > 100 µM | SW-620 > 100 µM | TK-10 > 100 µM | U-251 > 100 µM | UACC-257 > 100 µM | UACC-62 > 100 µM
